According to EP4707277A1, “NOVEL HETEROCYCLIC AMINE DERIVATIVES AND PHARMACEUTICAL COMPOSITION COMPRISING SAME” (Daewoong Pharmaceutical Co., Ltd., priority 2023, dated 2024):
Read-outs that look alike come from different tables or passages of the source.

Assays:
BTK = molecular target: T1, BTK (Homo sapiens, UniProt Q06187); assay: Inhibitory activity against BTK, ADP-Glo Kinase system (Promega); format: biochemical
T1 construct: purchased Signalchem B10-10H
How it was run: (§1)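 IC50 values were fitted from kinase reactions run for 1 h at 30°C with either 1 mM ATP or ATP at Km (10 µM for BTK, 25 µM for ITK). Reactions used 0.2 µg/µl poly(Glu4,Tyr1), recombinant human enzyme (BTK 10 ng, ITK 4 ng per reaction) in Tris pH 7.5 Mn/Mg buffer with 1% DMSO. ADP formed was read by ADP-Glo luminescence.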

ITK = molecular target: T2, ITK (Homo sapiens, UniProt Q08881); assay: Inhibitory activity against ITK, ADP-Glo Kinase system (Promega); format: biochemical
T2 construct: purchased Signalchem I13-11G-10
T2 sequence (Q08881 1-620): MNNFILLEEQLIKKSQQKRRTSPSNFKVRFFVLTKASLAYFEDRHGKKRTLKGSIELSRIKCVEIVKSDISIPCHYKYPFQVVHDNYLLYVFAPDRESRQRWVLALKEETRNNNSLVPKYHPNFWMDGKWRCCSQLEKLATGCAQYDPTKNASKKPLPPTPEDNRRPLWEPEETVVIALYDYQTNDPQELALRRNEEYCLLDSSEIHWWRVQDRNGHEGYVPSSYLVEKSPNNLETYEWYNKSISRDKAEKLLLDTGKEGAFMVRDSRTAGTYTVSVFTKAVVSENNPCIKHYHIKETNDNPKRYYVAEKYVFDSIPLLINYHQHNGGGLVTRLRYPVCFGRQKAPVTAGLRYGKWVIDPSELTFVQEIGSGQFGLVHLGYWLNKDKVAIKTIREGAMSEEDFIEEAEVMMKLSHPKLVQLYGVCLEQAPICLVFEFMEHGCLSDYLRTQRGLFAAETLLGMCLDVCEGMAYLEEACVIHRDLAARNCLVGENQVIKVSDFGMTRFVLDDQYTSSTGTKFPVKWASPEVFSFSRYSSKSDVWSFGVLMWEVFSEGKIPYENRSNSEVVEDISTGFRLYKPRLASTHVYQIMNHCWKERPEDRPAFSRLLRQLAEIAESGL
How it was run: as §1

[1] = Km ATP (BTK: 10 uM), read-out: BTK IC50(nM) Km ATP
[2] = Km ATP (ITK: 25uM), read-out: ITK IC50(nM) Km ATP
[3] = 1mM ATP, read-out: BTK IC50(nM) 1mM ATP
[4] = 1mM ATP, read-out: ITK IC50(nM) 1mM ATP

T1 sequence (Q06187 whole entry): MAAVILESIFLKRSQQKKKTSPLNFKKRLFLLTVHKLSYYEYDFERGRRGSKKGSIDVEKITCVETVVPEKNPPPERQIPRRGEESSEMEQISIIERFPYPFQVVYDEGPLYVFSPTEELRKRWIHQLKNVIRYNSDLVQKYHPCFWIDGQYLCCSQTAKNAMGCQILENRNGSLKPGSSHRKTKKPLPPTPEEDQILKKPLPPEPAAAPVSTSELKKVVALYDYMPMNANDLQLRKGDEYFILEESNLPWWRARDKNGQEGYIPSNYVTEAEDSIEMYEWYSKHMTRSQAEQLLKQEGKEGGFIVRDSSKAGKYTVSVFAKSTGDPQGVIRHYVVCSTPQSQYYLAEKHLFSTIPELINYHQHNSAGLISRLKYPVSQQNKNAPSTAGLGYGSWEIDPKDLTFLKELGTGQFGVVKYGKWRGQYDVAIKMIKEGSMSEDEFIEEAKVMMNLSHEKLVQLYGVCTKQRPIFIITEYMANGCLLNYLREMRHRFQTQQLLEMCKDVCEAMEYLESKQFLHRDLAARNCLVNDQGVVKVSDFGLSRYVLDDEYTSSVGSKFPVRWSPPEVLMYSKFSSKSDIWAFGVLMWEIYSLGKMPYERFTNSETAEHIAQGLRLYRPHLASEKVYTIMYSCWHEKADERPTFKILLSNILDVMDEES

SMILES	IC50 (BTK; [1])	IC50 (ITK; [2])	IC50 (BTK; [3])	IC50 (ITK; [4])
C=CC(=O)N1C[C@@H](Oc2nc(Nc3ncc(C)s3)cc3c2ccn3CC2CC2)C[C@@H]1C [Example 180, 1-((2S,4S)-4-((1-(cyclopropylmethyl)-6-((5-methylthiazol-2-yl)amino)-1H-pyrrolo[3,2-c]pyridin-4-yl)oxy)-2-methylpyrrolidin-1-yl)prop-2-en-1-one]	–	–	≤ 20 nM	≤ 20 nM
C#CC(=O)N1C[C@H](F)[C@H](Oc2nc(Nc3ncc(C)s3)cc3c2ccn3CC(C)C)C1 [Example 231, 1-((3S,4R)-3-fluoro-4-((1-isobutyl-6-((5-methylthiazol-2-yl)amino)-1H-pyrrolo[3,2-c]pyridin-4-yl)oxy)pyrrolidin-1-yl)prop-2-yn-1-one]	–	–	≤ 20 nM	≤ 20 nM
C=CC(=O)N1CC=C(c2nc(Nc3cc(OC)ncn3)cc3c2ccn3C(C)C)CC1 [Example 46, 1-(4-(1-isopropyl-6-((6-methoxypyrimidin-4-yl)amino)-1H-pyrrolo[3,2-c]pyridin-4-yl)-3,6-dihydropyridin-1(2H)-yl)prop-2-en-1-one]	–	–	≤ 20 nM	100 to 500 nM
C=CC(=O)N1CC[C@H](Oc2nc(Nc3ncc(C)s3)cc3c2ccn3CCC(C)C)C1 [Example 114, (S)-1-(3-((1-isopentyl-6-((5-methylthiazol-2-yl)amino)-1H-pyrrolo[3,2-c]pyridin-4-yl)oxy)pyrrolidin-1-yl)prop-2-en-1-one]	–	–	≤ 20 nM	≤ 20 nM
C=CC(=O)N1CCC=C(c2nc(Nc3ncc(C)s3)cc3c2ccn3C(C)(C)C#N)C1 [Example 23, 2-(4-(1-acryloyl-1,2,5,6-tetrahydropyridin-3-yl)-6-((5-methylthiazol-2-yl)amino)-1H-pyrrolo[3,2-c]pyridin-1-yl)-2-methylpropanenitrile]	20 to 100 nM	≤ 20 nM	–	–
C=CC(=O)N1CC=C(c2nc(Nc3ncc(C)s3)cc3c2ccn3CC2CCC(F)(F)CC2)CC1 [Example 11, 1-(4-(1-((4,4-difluorocyclohexyl)methyl)-6-((5-methylthiazol-2-yl)amino)-1H-pyrrolo[3,2-c]pyridin-4-yl)-3,6-dihydropyridin-1(2H)-yl)prop-2-en-1-one]	≤ 20 nM	≤ 20 nM	–	–
C=CC(=O)N1CC[C@H](Oc2nc(Nc3nccnc3OC)cc3c2ccn3C(C)C)C1 [Example 184, (S)-1-(3-((1-isopropyl-6-((3-methoxypyrazin-2-yl)amino)-1H-pyrrolo[3,2-c]pyridin-4-yl)oxy)pyrrolidin-1-yl)prop-2-en-1-one]	–	–	> 500 nM	> 500 nM

The next lines start with the values.

IC50 (BTK; [1])	IC50 (ITK; [2])	IC50 (BTK; [3])	IC50 (ITK; [4])	SMILES
≤ 20 nM	≤ 20 nM	–	–	C=CC(=O)Nc1cccc(-c2nc(Nc3ncc(C)s3)cc3c2ccn3CC2CCOCC2)c1F [Example 73, N-(2-fluoro-3-(6-((5-methylthiazol-2-yl)amino)-1-((tetrahydro-2H-pyran-4-yl)methyl)-1H-pyrrolo[3,2-c]pyridin-4-yl)phenyl)acrylamide]
–	–	≤ 20 nM	≤ 20 nM	C=CC(=O)N1CC[C@H](Oc2nc(Nc3ncc(C)s3)cc3c2ccn3CC2CCOCC2)C1 [Example 133, (S)-1-(3-((6-((5-methylthiazol-2-yl)amino)-1-((tetrahydro-2H-pyran-4-yl)methyl)-1H-pyrrolo[3,2-c]pyridin-4-yl)oxy)pyrrolidin-1-yl)prop-2-en-1-one]
≤ 20 nM	≤ 20 nM	≤ 20 nM	> 500 nM	C=CC(=O)Nc1c(C)ccc(-c2nc(Nc3ncc(C)s3)cc3c2ccn3C)c1C [Example 56, N-(2,6-dimethyl-3-(1-methyl-6-((5-methylthiazol-2-yl)amino)-1H-pyrrolo[3,2-c]pyridin-4-yl)phenyl)acrylamide]
–	–	≤ 20 nM	20 to 100 nM	C=CC(=O)Nc1ccc(F)c(-c2nc(Nc3ncc(C)s3)cc3c2ccn3C2CCCC2)c1 [Example 70, N-(3-(1-cyclopentyl-6-((5-methylthiazol-2-yl)amino)-1H-pyrrolo[3,2-c]pyridin-4-yl)-4-fluorophenyl)acrylamide]
